Tests used:
[1] = system: KE1 bladder cancer cell line (ERCC2-mutated derivative of KU19-19, NER-deficient); test: In vitro drug sensitivity assay (CellTiter-Glo); format: cell-based; conditions: NER-deficient KE1, compared with isogenic KU19-19; 48 to 72 hours
Text: (§1) Bladder cancer cell lines were purchased from ATCC. The KE1 bladder cancer cell line is a derivative of KU19-19 in which an ERCC2 T484 mutation has been introduced by CRISPR/Cas9 gene editing as previously described (6). The MDA-MB-468 breast cancer cell line and its ERCC4-complemented derivative have been previously described (35). Small interfering RNAs (siRNAs) targeting specific NER genes as well as a non-targeting siRNA (siNTC) were purchased from Integrated DNA Technologies Inc. (Coralville, IA, USA; see Table 9 for sequences). Cells were seeded in 6-well plates and grown to 50% confluency. A transfection mixture containing siRNA diluted to a final concentration of 30 nM in Opti-MEM media containing Lipofectamine 3000 (Life Technologies; Carlsbad, CA) was then added to cells. After 48 hours, cells were trypsinized and re-aliquoted to separate wells and transfected with 15 nM siRNA for 24 hours immediately prior to viability assays performed as described below. […]
(§2) Cells were seeded in either 96-well (5,000 cells/well) or 24-well (20,000 cells/well) plates. […] Plates were scanned using a luminescence microplate reader (BioTek). […]

[2] = system: SC14 (SW1710 derivative with ERCC2 P463L mutation); test: In vitro drug sensitivity assay; format: cell-based; conditions: ERCC2-mutant SC14 line compared with SW1710
Text: as §1, §2

[3] = system: cisplatin-resistant MDA-MB-468 cell line; test: In vitro drug sensitivity assay in cisplatin-resistant derivative; format: cell-based; conditions: cisplatin-resistant vs parental MDA-MB-468
Description: Cells were seeded in either 96-well (5,000 cells/well) or 24-well (20,000 cells/well) plates. The following day, irofulven and cisplatin stock solutions were serially diluted in media and added to cells. After 48 to 72 hours, media was removed and CellTiter-Glo® reagent (Promega; Madison, WI) was added. Plates were scanned using a luminescence microplate reader (BioTek). Survival at each drug concentration was plotted as a percentage of survival in drug-free media with error bars representing the standard deviation of at least three experiments.
Platinum-based chemotherapy is a first-line treatment for numerous solid malignancies including bladder cancer, but platinum resistance frequently occurs and represents a challenging clinical problem. Although a variety of platinum resistance mechanisms have been characterized, restoration or upregulation of DNA repair is a common mechanism of resistance, particularly in HR-deficient breast and ovarian tumors^33. Mechanisms of platinum resistance in NER deficient tumors have not been characterized, and we wished to determine if acquired resistance to cisplatin would confer cross-resistance to irofulven through restoration of NER. To test this, we derived cisplatin resistance in the NER-deficient MDA-MB-468 cell line by gradual exposure to escalating doses of cisplatin (Methods).

[4] = system: muscle-invasive bladder cancer; test: Pathologic response to neoadjuvant cisplatin-based chemotherapy, DFCI/MSKCC cohort; format: in vivo, human; conditions: for complete response rate: all cases
Text: (§3) To validate the ability of the NERDetect classifier to discriminate between ERCC2 mutant and WT bladder tumors, we analyzed WES data from three additional independent bladder cancer cohorts^53,0,31. The DFCI/MSK (n=50) and FCCC (n=48) cohorts are comprised of muscle-invasive bladder cancer patients who received neoadjuvant cisplatin-based chemotherapy followed by radical cystectomy, while the BGI cohort (n=98) included patients with MIBC or non-muscle-invasive bladder cancer.
(§4) Patients in the DFCI/MSK and FCCC cohorts were treated with cisplatin-based chemotherapy followed by radical cystectomy, and cisplatin responders were defined as those that had no residual invasive disease on pathologic examination of the cystectomy specimen.
(§5) Patients in the DFCI/MSK and Philadelphia cohorts were treated with cisplatin-based chemotherapy followed by radical cystectomy, and cisplatin responders were defined as patients with no residual invasive disease on pathologic examination of the cystectomy specimen.

[5] = system: muscle-invasive bladder cancer; test: Pathologic response to neoadjuvant cisplatin-based chemotherapy, Philadelphia (FCCC) cohort; format: in vivo, human
Text: as §3, §4, §5

[6] = system: MDA-MB-468 breast cancer cell line (NER deficient, ERCC4 silenced); conditions: MDA-MB-468 with re-expression of WT ERCC4; previous work; cited from earlier work
[7] = system: muscle-invasive and metastatic urothelial cancer; conditions: cisplatin-based chemotherapy, first-line; cited from earlier work

N.N.[Cl][Pt][Cl] [cisplatin]
drug sensitivity (survival as percentage of drug-free media) [1]: increased sensitivity
drug sensitivity [2]: significantly increased sensitivity
cisplatin IC50, cisplatin resistant cell line relative to parental [3]: ~ 3.5 fold
cisplatin responders ([4]; WT ERCC2 patients, ERCC2mut score<0.70 (9 of 32)): 28%
cisplatin responders ([4]; WT ERCC2 patients, ERCC2mut score≥0.70 (seven of nine)): 78%
cisplatin responders ([4]; WT ERCC2 patients, NERDetect score<0.75 (10 of 31)): 32%
cisplatin responders ([4]; WT ERCC2 patients, NERDetect score≥0.75 (six of eight)): 75%
cisplatin responders ([4]; all 41 WT ERCC2 cases (16)): 39%
complete response rate ([4]; ERCC2mut score<0.70 (10 of 33)): 30%
complete response rate ([4]; ERCC2mut signature score≥0.70 (15 of 17)): 88%
complete response rate ([4]; NERDetect score ≥0.75 (14 of 16)): 87%
complete response rate ([4]; NERDetect score<0.75 (11 of 34)): 32%
complete response rate ([5]; ERCC2mut score<0.70 (14 of 42)): 33%
complete response rate ([5]; ERCC2mut signature score≥0.70 (all six)): 100%
complete response rate ([5]; NERDetect score<0.75 (14 of 41)): 34%
complete response rate ([5]; NERDetect score≥0.75 (six of seven)): 86%
cisplatin sensitivity after re-expression of ERCC4 [6]: could be rescued
patients with an initial response [7]: 60-70%

Reference: patent US12691143B2, “Method for treating cancer” (priority 2020, dated 2026)
